Experimental data published in US8613905B2, “Diagnostic agent” (United Arab Emirates University, priority 2007, dated 2013).
“Also recorded” adds a separate entry of the source.

How the values were obtained:
[1] = target: T1, fresh or aggregated α-synuclein (Homo sapiens, UniProt P37840); experiment: ELISA: coated peptides capturing free α-synuclein; assay type: binding; conditions: peptides coated 100 pmol/well; α-synuclein 0.001-200 pmol/well; FIG. 4
T1 construct: made in house; host or cells: Escherichia coli
Procedure: Peptides (100 pmol/well) were coated on a microtiter plate to dry overnight at 37° C. The peptides were therefore fixed to the microtiter plate. After washing with PBS containing 0.05% Tween 20 (PBST) and blocking with blocking buffer (PBS containing 2.5% gelatin and 0.05% Tween 20), various concentrations (0.001-200 pmol/well) of fresh or aggregated α-synuclein solution (produced by aging), or BSA protein (negative control) were added and incubated for 1.5 hrs at RT.
Binding of α-synuclein to peptides was quantified using enzyme-linked antibody specific for α-synuclein. Briefly, the plates were washed three times with PBST before addition of the polyclonal rabbit α-synuclein antibody FL-140 at 1:1000 (in PBS). Plates were then washed three times with PBST before the addition of TMB peroxidase substrate. Plates were left for 15 min at RT for colour to develop. The reaction was stopped by addition 100 μl/well of 0.5M sulphuric acid and the plates were read at 450 nm in a spectrophotometer.

[2] = target: T1, fresh or aggregated α-synuclein; experiment: ELISA: binding of biotinylated peptides to coated α-synuclein; conditions: for binding to coated fresh and aggregated α-synuclein: α-synuclein coated 20-200 pmol/well, peptides 200 pmol/well, FIG. 2; for binding to aggregated versus fresh α-synuclein: range of peptide concentrations, FIG. 3A, B; for binding to aggregated versus fresh α-synuclein / lowest binding concentration detected: α-synuclein coated at 100 pmol/well; for binding to coated aggregated α-synuclein: aggregated α-synuclein coated at 500 pmol/well, data not shown
Procedure: Various concentrations of fresh, or aggregated α-synuclein solutions (20-200 pmol/well) were coated on a microtiter plate to dry overnight at 37° C. Aggregated α-synuclein was therefore fixed to the microtiter plate. Aggregated α-synuclein was produced either by aging, dopamine treatment or nitration as indicated on the figures. After washing with PBS containing 0.05% Tween-20 (PBST) and blocking with blocking buffer (PBS containing 2.5% gelatin and 0.05% Tween-20), the biotinylated peptides (200 pmol/well in PBS) or BSA protein (negative control) were added and incubated for 1.5 hrs at room temperature (RT).
Binding of peptides to α-synuclein was quantified using enzyme-linked avidin. Briefly, the plates were washed three times with PBST before the addition of 100 μl/well of extravidin peroxidase diluted at 1:5,000 in blocking buffer. Plates were then washed three times with PBST before the addition of TMB peroxidase substrate. Plates were left for 15 minutes at RT for colour to develop. The reaction was stopped by addition 100 μl/well of 0.5M sulphuric acid and the plates were read at 450 nm in a spectrophotometer.
The effect of peptide concentration on binding to a fixed concentration of α-synuclein was tested by coating microtiter plates as above with 100 or 200 pmol/well of α-synuclein. […] The lowest binding concentration detected for both peptides was 10 pmol/well. […] The lowest binding concentration detected for all three peptides was 10 pmol/well. The binding properties of peptides 6 & 7 to coated fresh or aged α-synuclein were also tested. The binding for peptides 6&7 was detectable when aggregated α-synuclein was coated at 500 pmol/well (data not shown).
The lowest binding concentration detected for dopamine treated α-synuclein was 1 pmol/well. Dopamine treated and nitrated α-synuclein are physiological approximations of the soluble aggregates (or adducts) present during the early stages of synucleinopathic diseases.

[3] = target: T2, α-synuclein aggregates in TET-off regulated SH-SY5Y cells expressing A53T (Homo sapiens, UniProt P37840, A53T); experiment: Binding to α-synuclein aggregates in cell model; assay type: cell-based; conditions: 5 μM for 1, 2 & 4 hrs respectively (OR5, 6, 7); FIG. 13
T2 construct: expressed in transfected cells; host or cells: inducible TET-off regulated SH-SY5Y cells (from Dr. Kostas Vekrellis)
Procedure: This example utilises the inducible TET-off regulated SH-SY5Y system from Dr. Kostas Vekrellis (Foundation For Biomedical Research Academy of Athens). These transfected cells have shown to produce both soluble and insoluble aggregates of α-synuclein. The binding of the OR compounds to α-synuclein aggregates was investigated in this cell model.
Cells expressing A53T were grown on coverslips in media without doxycycline and were differentiated for 7 days by adding retinoic acid at 10 μM. On day 6, cells were treated with 1 μM MG132 in media containing retinoic acid for 24 hrs. The biotinylated-OR5, 6 and 7 were added to the media at 5 μM for 1, 2 & 4 hrs respectively at 37° C.
The media for the cells was then changed with fresh media without peptides and then incubated for another 15 mins for the cells to clear up the unbound peptides to α-synuclein aggregates. The cells were fixed and then treated with 0.2% Triton X in PBS for 15 minutes at RT, and after washing with PBS the blocking buffer, 0.5% BSA, was added.
The cells were stained with anti-α-synuclein antibodies (MAb 211 or FL-140 (Santa Cruz Biotechnology)), and with Streptavidin-FITC (Sigma). α-synuclein aggregates were detected after staining with anti-mouse TRITC (Sigma) or anti-rabbit TRITC (Jackson ImmunoResearch Inc.) as appropriate.

[4] = system: SH-SY5Y neuroblastoma cells; experiment: Uptake of peptides into living neuronal cells (confocal microscopy); assay type: cell-based, human; conditions: peptides at 50 μM
Procedure: SH-SY5Y or M17 neuroblastoma cells were grown in 15 ml medium in confluent flasks before splitting each suspension into petri dishes and allowing cells to grow on coverslips (˜5×10^3/plate) until the next day. Cells were then incubated with different peptides at 50 μM in growing media (total volume=2 ml). […] After 15 min incubation with respective peptides, the cells were washed 3 times with PBS. 2 ml of fixing solution (4% paraformaldehyde in PBS) was added to the cells which were then incubated for 30 min at room temperature. Fixing buffer was removed and 2 ml of permeabilization buffer (0.2% Triton-X-100 in PBS) was added to the cells for 30 min at room temperature and then removed. 2 ml of Blocking buffer was added, left for 1 hour at RT and then removed before addition of 1:100 FITC [Avidin labelled Fluorescein] (Vector Labs) in blocking buffer. Cells were incubated for 1 hour and then washed twice with PBS 0.05% tween. The coverslips were removed and plated with the cell bearing surface downwards on a glass slide, with the addition of a drop of mounting medium (Dako Cytomation). Cells were then visualized under the confocal microscope.

[5] = target: T3, aggregated α-synuclein (Homo sapiens, UniProt P37840); experiment: Immunogold assay (EM) on preformed α-synuclein aggregates; assay type: binding; conditions: 50 μM aggregated α-synuclein on grids; FIG. 6
T3 construct: made in house; host or cells: Escherichia coli
Procedure: Copper grids were placed on 50 μl of 50 μM aggregated α-synuclein for 1 hour and then washed on 50 μl of PBS for 2 minutes before being placed on 50 μl blocking buffer (Vector) for 1 hour 30 minutes. Grids were washed 5 times with PBS (5 minutes each) and then soaked in either […] peptide 5 (in blocking buffer) or blocking buffer only (negative control) for 1 hour 30 minutes at room temperature. Grids were then washed 5 times with PBS (5 minutes each) and soaked in 50 μl of streptavidin-gold label (1:50) in blocking buffer for 30 minutes at room temperature. Grids were again washed 5 times with PBS (5 minutes each) and soaked in 50 μl of uranyl acetate (2% in distilled water) for 1 minute at room temperature before viewing under a transmission electron microscope.

[6] = target: T4, oligomeric α-synuclein (dopamine treated α-synuclein) (Homo sapiens, UniProt P37840); experiment: Dot blotting of biotinylated peptides on α-synuclein; assay type: binding; conditions: FIG. 11
T4 construct: made in house; host or cells: Escherichia coli
Procedure: The binding of the peptides to the oligomeric α-synuclein was also tested using dot blotting. Monomeric α-synuclein (fresh α-synuclein solution) and oligomeric α-synuclein (dopamine treated α-synuclein) was spotted onto a nitrocellulose membrane. After the samples had been dried at room temperature for 2 hrs, the membranes were blocked, and then anti-α-synuclein MAb 211 or biotinylated-peptides were added to the membranes and incubated for 1.5 hr at room temperature. After gentle washing the membranes were treated with Extravidin-peroxidase or anti-mouse-peroxidase as appropriate. The binding of 211 and the peptides was detected using ECL reagents (Pierce). As shown in FIG. 11 the biotinylated-peptides bind specifically to the oligomeric but not monomeric forms of α-synuclein.

Gd-DOTA-rrrrrrGvvaGK(biotin)-r [OR4] was tested. Which “capture of aggregated versus fresh α-synuclein by coated peptide” value [1] did it give?
Its value is “captured more of the aggregated than the fresh α-synuclein”.

And the “binding to coated fresh and aggregated α-synuclein” value [2]?
Its value is “more specific binding to the aggregated α-synuclein”.

How did the “binding to aggregated versus fresh α-synuclein” value [2] turn out when Gd-DOTA-rGvvaGK(biotin)-rrrrrr [OR2] was run?
Its value is “more binding to the aggregated than to the fresh α-synuclein”.

What about the “binding to coated fresh and aggregated α-synuclein” value [2] of the same substance?
Its value is “high binding to both fresh and aggregated coated α-synuclein”.

And the “lowest binding concentration detected” value [2]?
The value was 10 pmol/well.

For “Gd-DOTA-r-Sar-vva-Sar-K(biotin)-pentadiamine [OR7]”, which “binding to α-synuclein aggregates formed inside cells” value [3] is on record?
The value was “bind to α-synuclein aggregates formed inside cells”.

What about the “incubation after which observed in living cells” value [4] of the same substance?
Its value is 4 h.

What about the “binding to coated aggregated α-synuclein” value [2] of the same substance?
Its value is “detectable”.

And the “binding to preformed α-synuclein aggregates (streptavidin-gold, EM)” value [5]?
The value was “bind to preformed α-synuclein aggregates; also recorded: binding”.

With Gd-DOTA-rrrrrrGtvvaGK(biotin)-r [OR3] as the substance, how does the “binding to coated fresh and aggregated α-synuclein” value [2] read?
Its value is “more specific binding to the aggregated α-synuclein”.

How did the “binding to aggregated versus fresh α-synuclein” value [2] turn out when Gd-DOTA-rGtvvaGK(biotin)-rrrrrr [OR1] was run?
Its value is “more binding to the aggregated than to the fresh α-synuclein”.

And the “binding to coated fresh and aggregated α-synuclein” value [2]?
The value was “high binding to both fresh and aggregated coated α-synuclein”.

What about the “lowest binding concentration detected” value [2] of the same substance?
The value was 10 pmol/well.

What does the source list for “Gd-DOTA-r-Sar-vva-Sar-K(biotin)-rrrrrr [OR5]”?
binding to α-synuclein aggregates formed inside cells [3]: bind to α-synuclein aggregates formed inside cells; binding to oligomeric versus monomeric α-synuclein (dot blot) [6]: binding of biotinylated-peptide OR5 to α-synuclein oligomers; capture of aggregated versus fresh α-synuclein by coated peptide [1]: captured more of the aggregated than the fresh α-synuclein; binding to aggregated α-synuclein generated by aging, dopamine treatment or nitration ([2]; FIG. 5): highly specific binding to all forms of aggregated α-synuclein; specificity for dopamine treated α-synuclein ([2]; FIG. 5): particularly high specificity; lowest binding concentration detected for dopamine treated α-synuclein ([2]; dopamine treated α-synuclein (soluble aggregates)): 1 pmol/well; binding to preformed α-synuclein aggregates (streptavidin-gold, EM) [5]: bind to preformed α-synuclein aggregates; also recorded: binding

“Gd-DOTA-r-Sar-vva-Sar-K(biotin)-butadiamine [OR6]” was tested. Which “binding to α-synuclein aggregates formed inside cells” value [3] did it give?
The value was “bind to α-synuclein aggregates formed inside cells”.

What about the “incubation after which observed in living cells” value [4] of the same substance?
Its value is 2 h.

And the “binding to coated aggregated α-synuclein” value [2]?
The value was “detectable”.
